Results published in patent publication US8951963B2, “Active cores of peptide triazole HIV-1 entry inhibitors” (priority 2009, dated 2015).
Read-outs that look alike come from different tables or passages of the source. *1 amine or outer side, *2 acyl side, *3 side chain or, on linkers, in order; H or OH if unused. Where a SMILES comes first, the peptide text is derived from it. [ ]: non-standard residue; d: D form. X1 = O=C([C@@H]1C[C@H](n2cc([C]34[CH]5[CH]6[CH]7[CH]3[Fe]6754389%10[CH]4[CH]3[CH]8[CH]9[CH]4%10)nn2)CN1[*:1])[*:2]; Cit = NC(=O)NCCC[C@H](N)C(=O)O

Experiments:
HIV-1 strain BaL [1] = details: P4-CCR5 cells; Gopi et al., 2008; read-out: IC50, inhibition of infection by HIV-1 BaL; cited from earlier work
[2] = In vitro cytotoxicity, MTT assay; assay type: cell-based; details: human; P4-CCR5 cells, 2 hours, MTT
Method: (§1) P4-CCR5 cells were seeded at a density of 4×10^4 cells/well in a 96 well plate approximately 18 hours prior to experiment. […] The cells were subsequently washed and assessed for viability using a 3-(4,5-dimethylthiazol-2-yl)-2,5-diphenyltetrazolium bromide (MTT) assay of viability (previously described in Krebs et al. (1999). Concentrations were tested in triplicate in two independent assays.

P4-CCR5 cells [3] = assay: In vitro cytotoxicity, MTT assay; assay type: cell-based; details: concentrations as high as 0.1 mg/ml
Method: as §1

HIV-1 YU2 gp120 = biological target: T1, HIV-1 YU2 gp120 (Human immunodeficiency virus type 1 group M subtype B, UniProt P35961); assay type: binding; details: for dissociation rate constant (koff): Table 11, dissociation rate; for Ka: Table 11, association rate
T1 construct: made in house; host or cells: Drosophila S2 cells
Method: Surface plasmon resonance (SPR) interaction analyses were performed on a Biacore® 3000 optical biosensor (GE). All experiments were carried out at 25° C. using standard PBS, pH 7.4, with 0.005% Surfactant P20.
Regeneration of the surface was achieved by a one 5-second pulse of 10 mM glycine, pH 1.5.
SPR data analyses were performed using BIAEvaluation 4.0 software (GE). […] Experimental data were fitted to a simple 1:1 binding model with a parameter included for mass transport. […] The inhibition curve was converted into a calibration curve by the use of a fitting function. The fitting was done using the 4-parameter equation in BIAevaluation software: […]

gp120 = biological target: T2, gp120 (Human immunodeficiency virus type 1 group M subtype B, UniProt P35961); assay type: binding, HIV-1; details: ITC, 25° C., PBS pH 7.4
T2 construct: made in house; host or cells: Drosophila S2 cells
Method: FIGS. 14A-14D are a series of graphs of calorimetric titration data of gp120 with various peptides. […] Data was obtained as 25° C. in PBS, pH 7.4. Experiments in FIGS. 14A and 14B were carried out using a VP-ITC, where 2 μM gp120 in the calorimetric cell (˜1.4 mL) was titrated with 10 μL aliquots of peptide at concentration of 30 μM.
Isothermal titration calorimetric experiments were performed using high-precision calorimetric systems of model VP-ITC or ITC20 from MicroCal Inc. The titrations were performed by stepwise addition of peptide to gp120 contained in the calorimetric cell at a constant temperature of 25° C. […] For the experiments carried out in the VP-ITC the concentration of gp120 was about 2 μM and the syringe contained the peptide at a concentration about 30 μM. For the experiment carried out using ITC20 gp120 was prepared at about 4 μM and the peptide at 50-100 μM. The solutions contained within the calorimetric cells and injector syringes were prepared in PBS, pH 7.4 and thoroughly degassed to avoid bubble formation in the calorimetric cell. The heat evolved upon each injection of the peptide solution was obtained from the integral of the calorimetric signal. The heat associated with binding of a ligand to the protein in the cell was obtained by subtracting the heat of dilution from the heat of reaction.

mAb 17b = assay: SPR control: direct binding of peptide to mAb 17b surface; details: SPR control experiment
[4] = test system: viruses pseudotyped with the VSV-G envelope; assay type: cell-based
sCD4 = biological target: T3, sCD4 (Homo sapiens, UniProt P01730); assay: SPR control: direct binding of peptide to sCD4 surface; details: SPR control experiment
T3 construct: soluble four domain CD4 (sCD4); made in house; host or cells: CHO cells

Pseudotyped HIV-1BaL = assay type: cell-based; details: Table 12; HOS.CD4.CCR5 cells, 48 hours; NA = not active; read-out: IC50 (antiviral)
HIV-1 strain BaL [5] = assay: Combination of HNG-156 and cyanovirin-N, HIV-1 BaL infection of P4-CCR5 cells; assay type: cell-based
P4-CCR5 cells [6] = details: at concentrations corresponding to IC50 values; Gopi et al., 2008; cited from earlier work
HIV-1 strain BaL [7] = assay: Inhibition of HIV-1 infection, whole virus assay in P4-CCR5 cells; assay type: cell-based; details: result of one trial

12-mer peptide RINNIPWSEAMM (SEQ ID NO. 16) from phage-display library [Conjugate 12p1, reference compound]
IC50 (HIV-1 strain BaL [1]): 48000 nM

CC[C@H](C)[C@H](NC(=O)[C@@H](N)CCCNC(=N)N)C(=O)N[C@@H](CC(N)=O)C(=O)N[C@@H](CC(N)=O)C(=O)N[C@H](C(=O)N1C[C@@H](n2cc([C]34[CH]5[CH]6[CH]7[CH]3[Fe]6754389%10[CH]4[CH]3[CH]8[CH]9[CH]4%10)nn2)C[C@H]1C(=O)N[C@@H](Cc1c[nH]c2ccccc12)C(=O)N[C@@H](CO)C(=O)N[C@@H](CCC(=O)O)C(=O)N[C@@H](C)C(=O)N[C@@H](CCSC)C(=O)N[C@@H](CCSC)C(N)=O)[C@@H](C)CC (some centres unmarked) [HNG-156]
CC50 at 2 h [2]: > 59 µM | effect on P4-CCR5 cell viability (P4-CCR5 cells [3]): no effect

CC[C@H](C)[C@H](NC(=O)[C@@H](N)CCCNC(=N)N)C(=O)N[C@@H](CC(N)=O)C(=O)N[C@@H](CC(N)=O)C(=O)N[C@H](C(=O)N1C[C@@H](n2cc([C]34[CH]5[CH]6[CH]7[CH]3[Fe]6754389%10[CH]4[CH]3[CH]8[CH]9[CH]4%10)nn2)C[C@H]1C(=O)N[C@@H](Cc1c[nH]c2ccccc12)C(N)=O)[C@@H](C)CC (some centres unmarked) [UM12] (H-RINNI[X1]W-NH2; N-terminus and C-terminus assumed)
dissociation rate constant (koff) (HIV-1 YU2 gp120): 1.8E−03 ± 1.3 1/S | ΔH (gp120): -19.7 kcal/mol | −TΔS (gp120): +9.9 kcal/mol | direct binding to 17b (mAb 17b): neither UM10 nor UM12 exhibited direct binding | inhibition of negative control viruses pseudotyped with the VSV envelope [4]: Neither of these conjugates inhibited | direct binding to sCD4 (sCD4): neither UM10 nor UM12 exhibited direct binding | IC50 (Pseudotyped HIV-1BaL): 6.8 ± 0.3 µM

CC[C@H](C)[C@H](NC(=O)[C@@H](N)CCC(=O)O)C(=O)N[C@@H](CC(N)=O)C(=O)N[C@@H](CC(N)=O)C(=O)N[C@H](C(=O)N1C[C@@H](n2cc([C]34[CH]5[CH]6[CH]7[CH]3[Fe]6754389%10[CH]4[CH]3[CH]8[CH]9[CH]4%10)nn2)C[C@H]1C(=O)N[C@@H](Cc1c[nH]c2ccccc12)C(=O)N[C@@H](CO)C(N)=O)[C@@H](C)CC (some centres unmarked) [UM13] (H-EINNI[X1]WS-NH2; N-terminus and C-terminus assumed)
dissociation rate constant (koff) (HIV-1 YU2 gp120): 3.1E−03 ± 2 1/S | IC50 (Pseudotyped HIV-1BaL): 1.2 ± 0.3 µM

CC[C@H](C)[C@H](N)C(=O)N[C@@H](CC(N)=O)C(=O)N[C@@H](CC(N)=O)C(=O)N[C@H](C(=O)N1C[C@@H](n2cc([C]34[CH]5[CH]6[CH]7[CH]3[Fe]6754389%10[CH]4[CH]3[CH]8[CH]9[CH]4%10)nn2)C[C@H]1C(=O)N[C@@H](Cc1c[nH]c2ccccc12)C(N)=O)[C@@H](C)CC (some centres unmarked) [UM15] (H-INNI[X1]W-NH2)
dissociation rate constant (koff) (HIV-1 YU2 gp120): 3.3E−03 ± 0.3 1/S | ΔH (gp120): -16.6 kcal/mol | −TΔS (gp120): +6.6 kcal/mol

CC[C@H](C)[C@H](NC(=O)[C@H](CC(N)=O)NC(=O)[C@@H](N)CC(N)=O)C(=O)N1C[C@@H](n2cc([C]34[CH]5[CH]6[CH]7[CH]3[Fe]6754389%10[CH]4[CH]3[CH]8[CH]9[CH]4%10)nn2)C[C@H]1C(=O)N[C@@H](Cc1c[nH]c2ccccc12)C(N)=O (some centres unmarked) [UM17] (H-NNI[X1]W-NH2)
dissociation rate constant (koff) (HIV-1 YU2 gp120): 6.0E−03 ± 1.25 1/S | ΔH (gp120): -13.2 kcal/mol | −TΔS (gp120): +3.3 kcal/mol | IC50 (Pseudotyped HIV-1BaL): 33 ± 11 µM

CC[C@H](C)[C@H](NC(=O)[C@H](CC(N)=O)NC(=O)[C@@H](N)CC(N)=O)C(=O)N1C[C@@H](n2cc([C]34[CH]5[CH]6[CH]7[CH]3[Fe]6754389%10[CH]4[CH]3[CH]8[CH]9[CH]4%10)nn2)C[C@H]1C(=O)N[C@@H](Cc1c[nH]c2ccccc12)C(=O)N[C@@H](CO)C(N)=O (some centres unmarked) [UM31] (H-NNI[X1]WS-NH2)
dissociation rate constant (koff) (HIV-1 YU2 gp120): 7.8E−03 ± 1.1 1/S | ΔH (gp120): -13.8 kcal/mol | −TΔS (gp120): +4.1 kcal/mol

CC[C@H](C)[C@H](NC(=O)[C@H](CC(N)=O)NC(=O)[C@@H](N)CCCNC(=N)N)C(=O)N1C[C@@H](n2cc([C]34[CH]5[CH]6[CH]7[CH]3[Fe]6754389%10[CH]4[CH]3[CH]8[CH]9[CH]4%10)nn2)C[C@H]1C(=O)N[C@@H](Cc1c[nH]c2ccccc12)C(=O)N[C@@H](CO)C(N)=O (some centres unmarked) [UM32] (H-RNI[X1]WS-NH2)
dissociation rate constant (koff) (HIV-1 YU2 gp120): 3.1E−03 ± 1.5 1/S

CC[C@H](C)[C@H](NC(=O)[C@H](CC(N)=O)NC(=O)[C@@H](N)CCC(=O)O)C(=O)N1C[C@@H](n2cc([C]34[CH]5[CH]6[CH]7[CH]3[Fe]6754389%10[CH]4[CH]3[CH]8[CH]9[CH]4%10)nn2)C[C@H]1C(=O)N[C@@H](Cc1c[nH]c2ccccc12)C(=O)N[C@@H](CO)C(N)=O (some centres unmarked) [UM33] (H-ENI[X1]WS-NH2)
dissociation rate constant (koff) (HIV-1 YU2 gp120): 1.8E−03 ± 0.8 1/S

CC[C@H](C)[C@H](NC(=O)[C@H](CC(N)=O)NC(=O)[C@@H](N)CCCNC(N)=O)C(=O)N1C[C@@H](n2cc([C]34[CH]5[CH]6[CH]7[CH]3[Fe]6754389%10[CH]4[CH]3[CH]8[CH]9[CH]4%10)nn2)C[C@H]1C(=O)N[C@@H](Cc1c[nH]c2ccccc12)C(=O)N[C@@H](CO)C(N)=O (some centres unmarked) [UM34] (H-[Cit]NI[X1]WS-NH2; N-terminus assumed)
Ka (HIV-1 YU2 gp120): Not detectable | dissociation rate constant (koff) (HIV-1 YU2 gp120): Not detectable

CC[C@H](C)[C@H](N)C(=O)N[C@@H](CC(N)=O)C(=O)N[C@H](C(=O)N1C[C@@H](n2cc([C]34[CH]5[CH]6[CH]7[CH]3[Fe]6754389%10[CH]4[CH]3[CH]8[CH]9[CH]4%10)nn2)C[C@H]1C(=O)N[C@@H](Cc1c[nH]c2ccccc12)C(=O)N[C@@H](CO)C(N)=O)[C@@H](C)CC (some centres unmarked) [UM35] (H-INI[X1]WS-NH2; N-terminus assumed)
Ka (HIV-1 YU2 gp120): Not detectable | dissociation rate constant (koff) (HIV-1 YU2 gp120): Not detectable

CC[C@H](C)[C@H](NC(=O)[C@@H](N)CC(N)=O)C(=O)N1C[C@@H](n2cc([C]34[CH]5[CH]6[CH]7[CH]3[Fe]6754389%10[CH]4[CH]3[CH]8[CH]9[CH]4%10)nn2)C[C@H]1C(=O)N[C@@H](Cc1c[nH]c2ccccc12)C(=O)N[C@@H](CO)C(N)=O (some centres unmarked) [UM41] (H-NI[X1]WS-NH2)
Ka (HIV-1 YU2 gp120): Not detectable | dissociation rate constant (koff) (HIV-1 YU2 gp120): Not detectable | ΔH (gp120): -6.1 kcal/mol | −TΔS (gp120): -1.6 kcal/mol

RINNIPWSEAMM [HNG-113]
synergy with CV-N (HIV-1 strain BaL [5]): does not synergize | impact on cell viability (P4-CCR5 cells [6]): no or minimal impact | IC50 (HIV-1 strain BaL [1]): 156 nM

RINNIPWSEAMM [HNG-124]
impact on cell viability (P4-CCR5 cells [6]): no or minimal impact | IC50 (HIV-1 strain BaL [1]): 418 nM

RINNIPWSEAMM [HNG-137]
impact on cell viability (P4-CCR5 cells [6]): no or minimal impact | IC50 (HIV-1 strain BaL [1]): 610 nM

dextran sulfate
IC50 (HIV-1 strain BaL [7]): 9.8 µM | IC50, inhibition of infection by HIV-1 BaL (HIV-1 strain BaL [7]): 4.9 µg/mL | Viral infectivity inhibition IC50 (HIV-1 strain BaL [5]; agent alone): 0.900 microgram/milliliter

B1: Cyanovirin-N: 11 kD protein originally isolated from the cyanobacteria Nostoc ellipsosporum; binds gp120 (protein, listed as Nostoc ellipsosporum)
chain: LGKFSQTCYNSAIQGSVLTSTCERTNGGYNTSSIDLNSVIENVDGSLKWQPSNFIETCRNTQLAGSSELAAECKTRAQQFVSTKINLDDHIANIDGTLKYE
modifications: DISULFID (8)..(22); DISULFID (58)..(73)
Viral infectivity inhibition IC50 (HIV-1 strain BaL [5]; agent alone): 0.026 microgram/milliliter | EC50 Dm (HIV-1 strain BaL [5]; agent alone, dose at which 50% neutralization occurs): 0.045 µg/mL
